Where “and” joins values, the source holds several entries; their conditions need not be identical. Identical values can stand only once.
Key:
[1] = system: acute myocardial infarction in rats; experiment: Acute myocardial infarction in rats (coronary ligation, TTC staining, pathohistology); assay type: in vivo, rat; settings: for myocardial infarction area (ischemic area %): individual animals
Procedure: Model preparing method: 30 SD rats (Shanghai University of Traditional Chinese Medicine Experimental Animal Center), weight: 320-370 g; rat was treated with anesthesia with pentobarbital (35 mg/kg), supine fixing; neck midline incision, separating trachea, tracheotomy, inserting a breathing tube, adjusting a frequency and tidal volume of a ventilator; median sternotomy thoracotomy (3-4 intercostal), using thin surgical needle and line six for starting at a left atrial appendage, and ligation at pulmonary cone. Successful standard thereof was that: observing with naked eyes (anterior descending artery blood supply area was darken or pale). Chest was quickly closed. For the sham group, the line passed the left anterior descending coronary artery bypass without ligation.
TTC staining: rat hearts were frozen at −20° C., and were taken out after being hard; the rat hearts were left-coronally excised into 5-6 pieces at a thickness of 3-4 mm. Then the rat hearts were placed in 0.5% TTC solution, and incubated at 37° C. for 15 min. The pieces were taken out and fixed in 4% formaldehyde solution.
The hearts were cut according to two different colors and drained water with filter paper before weighing. Calculation formula was as follows: ischemic area (%)=[…]×100%. Meanwhile, the hearts were partly acquired for pathological analysis.
Control group: six rats, administered with 0.9% physiological saline (NS) after surgery.
Sham operation group: six rats, opening chest and passing line without ligation.
Positive medicine group: six rats, administered with ticagrelor (4.1 mg/kg) after surgery.
4 mg/kg Fc treatment group: six rats, administered with Fc (4 mg/kg) after surgery.
12 mg/kg Fc treatment group: six rats, administered with Fc (12 mg/kg) after surgery.

platelet = experiment: In vitro platelet aggregation assay (ADP-induced, nephelometry); assay type: cell-based, rat
Procedure: 2.1.1 In vitro platelet aggregation assay: blood samples were placed in a centrifuge tube pre-coated with sodium citrate and centrifuged at 100 g for 5 min. The supernatant was collected and designated as rich platelet (PRP). After addition of prostacyclin (2 μg/ml), PRP was centrifuged at 700 g for 5 min and washed twice with 0.9% saline. The washed platelets were re-suspended in Tyrode buffer and diluted at a density of 4×10^8 cells/ml for further utilization. Platelet aggregation assay was provided according to a nephelometry method: platelet plasma was placed in cuvette; after addition of a inducing agent (ADP: 5-adenosine diphosphate disodium salt: 1×10^−4 mol/L), the platelet plasma was stirred with magnetic particles, wherein platelet was gradually aggregated, plasma turbidity was reduced, and transmittance was increased. Changes were recorded for drawing a dynamic curve of platelet aggregation. Aggregation rate and transmittance for PRP were regarded as 0; aggregation rate and transmittance of suspension were regarded as 100%. A platelet aggregation instrument was used for automatic measurement, recording, and drawing the platelet aggregation curve. For judging inhibiting or promoting of aggregation, it was mainly depending on whether synergy or antagonism happened with the inducing agent; wherein synergy was to promote platelet aggregation, antagonism was to inhibit platelet aggregation.
Blank control group: 0.9% physiological saline (NS).
Model group: adenosine diphosphate (ADP) (10 mM).
Positive control group: clopidogrel (5 mM).
Treatment groups: six rats for each group, Fc dissolved in double distilled water (prepared with different concentrations).

rat plasma = experiment: Blood coagulation index APTT in rat plasma; assay type: biochemical
From the text: (§1) 2.1.3.2 Four indexes of blood coagulation: i) Prothrombin time (PT) mainly reflects extrinsic coagulation conditions. Its value is increased when the levels of coagulation factor IX and XI in plasma are reduced, which usually occurs in hemophilia, hemophilia B and factor XI deficiency patients. Conversely, the reduction of it is seen in hypercoagulable state, when the procoagulant substances get into blood and the activity of coagulation factors is increased. ii) Activated partial thromboplastin time (APTT) reflects mainly intrinsic coagulation conditions. Its value is changed under the similar condition as PT. iii) Thrombin time (TT) mainly reflects the abnormality in the conversion of fibrinogen into fibrin. Its value is elevated in DIC hyperfibrinolysis period, afibrinogenemia and hemoglobin hyperlipidemia, and when degradation products (FDPs) of blood fibrin are increased. iv) Fibrinogen (Fibrinogen, FIB) mainly reflects the content of fibrinogen in plasma. Generally, its concentration is elevated in acute myocardial infarction. The reduction of it is observed in DIC dissolution of low consumption of coagulation, primary fibrinolysis, severe hepatitis, hepatic cirrhosis.

rat tail bleeding = experiment: Bleeding time assay (rat tail transection); assay type: in vivo; settings: rats; vs control
From the text: 2.1.3.1 Bleeding time assay: rat tail was transected 0.5 cm from the tip to induce bleeding. And the bleeding time was defined as the time from the start of transection to bleeding cessation. The time at which the flow of blood ceased for 30 s was considered as bleeding cessation.

standard human plasma = experiment: Four indexes of blood coagulation (APTT, PT), human; assay type: biochemical; settings: 80 μg/ml
From the text: Notoginsenoside Fc (molecular weight 1211.38, HPLC purity≧99%, from Institute of Chinese Materia Medica), clopidogrel (molecular weight 419.90, HPLC purity≧98%, from National Institutes for Drug Control), standard human plasma, reagents for measurement of four indexes of blood coagulation (from Siemens, Germany), and adenosine diphosphate (ADP) (from Sigma, USA).
as §1, with “Generally, its concentration is elevated in acute myocardial infarction. The reduction of it is observed in DIC dissolution of low consumption of coagulation, primary fibrinolysis, severe hepatitis, hepatic cirrhosis.” left out

platelet thrombus = experiment: Whole animal thrombogenesis assay (extracorporeal circulation model, thrombus weight); assay type: in vivo, rat; settings: rats, 8.1 mg/kg intravenous, extracorporeal circulation started 5 min later, 15 min, blank control 37.2 mg
From the text: 2.1.2 Whole animal thrombogenesis assay: when arterial blood platelets contact a rough surface of a wire, the platelets are adhered to the wire and form platelet thrombus on a surface thereof. When platelet adhesion and aggregation function is suppressed, thrombus is light. Therefore, thrombus weight can measure platelet adhesion and aggregation functions.
Referring to FIG. 3, effect of the notoginsenoside Fc on the platelet aggregation function is illustrated. […] In the extracorporeal circulation model, the rats were intravenous administered with Fc at dose of 8.1 mg/kg. Five minutes later, the extracorporeal circulation was initiated and stopped after fifteen minutes. The thrombus formed on the thread was weighed. Significant difference was found between the blank control group and the Fc treatment group (**P<0.01).

CCCSc1nc(N[C@@H]2C[C@H]2c2ccc(F)c(F)c2)c2nnn([C@@H]3C[C@H](OCCO)[C@@H](O)[C@H]3O)c2n1 [ticagrelor, reference compound]
myocardial infarction area (ischemic area %) ([1]; ticagrelor 4.1 mg/kg after surgery): 15.15% and 17% and 13.85% and 14.24% and 16.69% and 16.94% | pathohistology of myocardium ([1]; ticagrelor 4.1 mg/kg, FIG. 11): arrangement of myocardial cells was disordered in local area

CC(C)=CCC[C@](C)(O[C@@H]1O[C@H](CO[C@@H]2OC[C@@H](O)[C@H](O)[C@H]2O)[C@@H](O)[C@H](O)[C@H]1O)[C@H]1CC[C@]2(C)[C@@H]1[C@H](O)C[C@@H]1[C@@]3(C)CC[C@H](O[C@@H]4O[C@H](CO)[C@@H](O)[C@H](O)[C@H]4O[C@@H]4O[C@H](CO)[C@@H](O)[C@H](O)[C@H]4O[C@@H]4OC[C@@H](O)[C@H](O)[C@H]4O)C(C)(C)[C@@H]3CC[C@]12C [Notoginsenoside Fc, notoginsenoside Fc]
myocardial infarction area (ischemic area %) ([1]; Fc 4 mg/kg after surgery): 17.27% and 22.31% and 22.8% and 19.05% and 19.74% and 16.88% | pathohistology of myocardium ([1]; Fc 4 mg/kg, FIG. 12): arrangement of most of the myocardial cells was normal | myocardial infarction area (ischemic area %) ([1]; Fc 12 mg/kg after surgery): reduced more myocardial infarction than the positive medicine group and 5.843% and 3.482% and 5.463% and 4.892% and 5.19% and 4.595% | pathohistology of myocardium ([1]; Fc 12 mg/kg, FIG. 13): arrangement of the myocardial cells was almost normal | percentage of the infarcted area ([1]; Fc 4 and 12 mg/kg, FIG. 8, vs control): significantly reduced | IC50 (platelet; ADP-induced, 0.1-40 μM, read-out: IC50 (inhibition of platelet aggregation)): 13.5 µM | platelet aggregation rate (platelet; ADP-induced, Fc 200 μM): 25.8% | aggregation rate (%) (platelet; ADP-induced, dose 0.1 μM, listed as Fc): 47.9% | aggregation rate (%) (platelet; ADP-induced, dose 0.1 μM, listed as notoginsenoside Fc): 47.98% | aggregation rate (%) (platelet; ADP-induced, dose 10 μM): 42.83% | aggregation rate (%) (platelet; ADP-induced, dose 20 μM): 32.33% | aggregation rate (%) (platelet; ADP-induced, dose 30 μM): 31.60% | aggregation rate (%) (platelet; ADP-induced, dose 40 μM, listed as Fc): 28.1% | aggregation rate (%) (platelet; ADP-induced, dose 40 μM, listed as notoginsenoside Fc): 28.13% | decreasing amplitude of platelet aggregation rate (platelet; from 0.1 μM to 40 μM): up to 19.8% | APTT Time (rat plasma; 5 μg/ml): 19.20 s | APTT Time (rat plasma; 5 μg/ml, listed as Fc): 19 s | APTT Time (rat plasma; 10 μg/ml): 20.31 s | APTT Time (rat plasma; 20 μg/ml): 21.61 s | APTT Time (rat plasma; 80 μg/ml): 28.25 s | APTT Time (rat plasma; 160 μg/ml): 32.65 s | APTT Time (rat plasma; 160 μg/ml, listed as Fc): 32 s | difference in APTT (rat plasma; from 5 μg/ml to 160 μg/ml): 13 s | rat tail bleeding time (rat tail bleeding): significantly prolonged | APTT (standard human plasma; blank control 91 s): 126 s | PT (standard human plasma; vs blank control): longer | weight of thrombus (wet weight) (platelet thrombus; listed as FC): 28.2 mg | weight of thrombus (wet weight) (platelet thrombus; listed as Fc): actively reduce thrombogenesis

Source: patent US20150335670A1, “Medical applications of Notoginsenoside Fc” (SHANGHAI UNIVERSITY OF TRADITIONAL CHINESE MEDICINE, priority 2013, published 2015)
